Assay results from ChEMBL document CHEMBL6127014, “Repurposing antiplasmodial leads for cancer: Exploring the antiproliferative effects of N-cinnamoyl-aminoacridines” (Bioorg Med Chem Lett, 2024).
Calls of active or inactive are those of the source. The rule behind the calls is not given here.

Tests used:
[1] = test system: MKN-28; test: Cytotoxicity against human MKN-28 cells assessed as reduction in cell viability at 12.5 to 50 uM incubated for 24 hrs by MTT assay; format: functional, cell-based; conditions: dose 12.5-50 µM
[2] = test system: MKN-28; test: Antiproliferative activity against human MKN-28 cells assessed as inhibition of cell growth incubated for 24 hrs by MTT assay; format: functional, cell-based; conditions: MKN-28, 24 h
[3] = test system: Huh-7; test: Antiproliferative activity against human Huh-7 cells assessed as inhibition of cell growth incubated for 24 hrs by Alamar blue assay; format: functional, cell-based; conditions: Huh-7, 24 h
[4] = Cytotoxicity against HDF cells assessed as inhibition of cell growth incubated for 24 hrs by MTT assay; format: toxicity, cell-based; conditions: human
[5] = Selectivity index, ratio of IC50 for cytotoxicity against HDF cells to IC50 for antiproliferative activity against human MKN-28 cells; format: toxicity, cell-based; conditions: HDF cells versus MKN-28 cells, read-out: Ratio IC50
[6] = test system: HepG2; test: Antiproliferative activity against human HepG2 cells assessed as inhibition of cell growth incubated for 24 hrs by Alamar blue assay; format: functional, cell-based; conditions: HepG2, 24 h
[7] = Selectivity index, ratio of IC50 for cytotoxicity against HDF cells to IC50 for antiproliferative activity against human Huh-7 cells; format: toxicity, cell-based; conditions: HDF cells versus Huh-7 cells, read-out: Ratio IC50
[8] = Selectivity index, ratio of IC50 for cytotoxicity against HDF cells to IC50 for antiproliferative activity against human HepG2 cells; format: toxicity, cell-based; conditions: HDF cells versus HepG2 cells, read-out: Ratio IC50
[9] = Cytotoxicity against HDF cells assessed as reduction in cell viability at 12.5 to 50 uM incubated for 24 hrs by MTT assay; format: toxicity, cell-based; conditions: human, dose 12.5-50 µM
[10] = test system: MKN-28; test: Cytotoxicity against human MKN-28 cells assessed as reduction in cell viability at 12.5 to 25 uM incubated for 24 hrs by MTT assay; format: functional, cell-based; conditions: dose 12.5-25 µM
[11] = Cytotoxicity against HDF cells assessed as reduction in cell viability at 12.5 to 25 uM incubated for 24 hrs by MTT assay; format: toxicity, cell-based; conditions: human, dose 12.5-25 µM
[12] = test system: MKN-28; test: Antiproliferative activity against human MKN-28 cells assessed as inhibition of cell growth incubated for 2 days by SRB assay; format: functional, cell-based; conditions: MKN-28, 48 h

Row | SMILES | Activity [1] | IC50 [2] | IC50 [3] | IC50 at 24 h [4] | selectivity ratio [5] | IC50 [6] | selectivity ratio [7] | selectivity ratio [8] | Activity [9] | Activity [10] | Activity [11] | IC50 [12]
1 | CCN(CC)CCCNc1c2ccc(Cl)cc2nc2c(NCCCCNC(=O)/C=C/c3cccc(F)c3)cc(OC)cc12 | Active | 13 µM | 11.5 µM | > 50 µM | > 3.8 | 5.21 µM | > 4.3 | > 9.6 | Non-Toxic |  |  | 
2 | COc1cc(NCCCCNC(=O)/C=C/c2ccc(C)cc2)c2nc3cc(Cl)ccc3cc2c1 |  |  |  |  |  |  |  |  |  | inactive | Non-Toxic | 
3 | CCN(CC)CCCC(C)Nc1c2ccc(Cl)cc2nc2c(NCCCCNC(=O)/C=C/c3ccc(OC)cc3)cc(OC)cc12 (stereo not drawn) | Active | 13.7 µM | 12.1 µM | > 50 µM | > 3.6 | 3.33 µM | > 4.1 | > 15 | Non-Toxic |  |  | 
4 | CCN(CC)CCCC(C)Nc1c2ccc(Cl)cc2nc2c(NCCCCNC(=O)/C=C/c3cccc(F)c3)cc(OC)cc12 (stereo not drawn) | Active | 12.7 µM | 12.9 µM | > 50 µM | > 3.9 | 5.06 µM | > 3.9 | > 9.9 | Non-Toxic |  |  | 
5 | CCN(CC)CCCC(C)Nc1c2ccc(Cl)cc2nc2c(NCCCCNC(=O)/C=C/c3ccccc3)cc(OC)cc12 (stereo not drawn) | Active | 10 µM | 7.26 µM | > 50 µM | > 5 | 4.17 µM | > 6.9 | > 12 | Non-Toxic |  |  | 
6 | COc1cc(NCCCCNC(=O)/C=C/c2cccc(Br)c2)c2nc3cc(Cl)ccc3cc2c1 |  |  |  |  |  |  |  |  |  | inactive | Non-Toxic | 
7 | CCN(CC)CCCC(C)Nc1c2ccc(Cl)cc2nc2c(NCCCCNC(=O)/C=C/c3ccc(F)cc3)cc(OC)cc12 (stereo not drawn) | Active | 12.5 µM | 12.4 µM | > 50 µM | > 4 | 7.64 µM | > 4 | > 6.5 | Non-Toxic |  |  | 
8 | COc1cc(NCCCCNC(=O)/C=C/c2ccc(OC)c(OC)c2)c2nc3cc(Cl)ccc3cc2c1 |  |  |  |  |  |  |  |  |  | inactive | Non-Toxic | 
9 | COc1cc(NCCCCNC(=O)/C=C/c2ccc([N+](=O)[O-])cc2)c2nc3cc(Cl)ccc3cc2c1 |  |  |  |  |  |  |  |  |  | inactive | Non-Toxic | 
10 | CCN(CC)CCCC(C)Nc1c2ccc(Cl)cc2nc2ccc(OC)cc12 (stereo not drawn) [QUINACRINE] |  |  | 8.7 µM |  |  | 4.48 µM |  |  |  |  |  | 2.46 µM
11 | CCN(CC)CCCNc1c2ccc(Cl)cc2nc2c(NCCCCNC(=O)/C=C/c3ccc(F)cc3)cc(OC)cc12 | Active | 12.2 µM | 11.2 µM | > 50 µM | > 4.1 | 6.32 µM | > 4.5 | > 7.9 | Non-Toxic |  |  | 
12 | COc1cc(NCCCCNC(=O)/C=C/c2ccc(C(F)(F)F)cc2)c2nc3cc(Cl)ccc3cc2c1 |  |  |  |  |  |  |  |  |  | inactive | Non-Toxic | 
13 | COc1cc(NCCCCNC(=O)/C=C/c2ccccc2)c2nc3cc(Cl)ccc3cc2c1 |  |  |  |  |  |  |  |  |  | inactive | Non-Toxic | 
14 | COc1cc(NCCCCNC(=O)/C=C/c2ccc(F)cc2)c2nc3cc(Cl)ccc3cc2c1 |  |  |  |  |  |  |  |  |  | inactive | Non-Toxic | 
15 | CCN(CC)CCCNc1c2ccc(Cl)cc2nc2c(NCCCCNC(=O)/C=C/c3ccc(OC)cc3)cc(OC)cc12 | Active | 15.5 µM | 12.4 µM | > 50 µM | > 3.2 | 5.38 µM | > 4 | > 9.3 | Non-Toxic |  |  | 
16 | COc1cccc2c1C(=O)c1c(O)c3c(c(O)c1C2=O)C[C@@](O)(C(=O)CO)C[C@@H]3O[C@H]1C[C@H](N)[C@H](O)[C@H](C)O1 [DOXORUBICIN] |  |  | 6.05 µM |  |  | 0.425 µM |  |  |  |  |  | 0.34 µM
17 | CCN(CC)CCCNc1c2ccc(Cl)cc2nc2c(NCCCCNC(=O)/C=C/c3ccccc3)cc(OC)cc12 | Active | 15.4 µM | 12.1 µM | > 50 µM | > 3.2 | 4.11 µM | > 4.1 | > 12.2 | Non-Toxic |  |  | 
18 | COc1cc(NCCCCNC(=O)/C=C/c2ccc(C(C)C)cc2)c2nc3cc(Cl)ccc3cc2c1 |  |  |  |  |  |  |  |  |  | inactive | Non-Toxic | 
19 | CNc1ccc(/C=C/C(=O)NCCCCNc2cc(OC)cc3cc4ccc(Cl)cc4nc23)cc1 |  |  |  |  |  |  |  |  |  | inactive | Non-Toxic | 
20 | COc1cc(NCCCCNC(=O)/C=C/c2cccc(F)c2)c2nc3cc(Cl)ccc3cc2c1 |  |  |  |  |  |  |  |  |  | inactive | Non-Toxic | 
